What was measured:
MEK = details: upstream kinase; cited from earlier work
Raf = details: upstream kinase; cited from earlier work
PKC = details: upstream kinase; cited from earlier work
p90 RSK = p90 RSK (Homo sapiens, UniProt P51812); assay: inhibition of the kinase activity of p90 RSK (Table 1); type: biochemical
Excerpt: Methods for testing the ability of SL0101, and analogs and derivatives thereof, synthesized according to the methods disclosed herein, to inhibit p90 ribosomal S6 kinase (RSK) activity and cellular and metabolic processes downstream from RSK activity, are known to those of ordinary skill in the art. Some specific assays are provided in citation number 5 (Smith et al., Cancer Res., 2005, 65:1027), which is incorporated by reference in its entirety. The assays include various kinase assays, cell cycle analysis, gene silencing, and analysis of cells and tissues in vitro and in vivo.
Some specific assays are provided in citation number 5 (Smith et al., Cancer Res., 2005, 65:1027), which is incorporated by reference in its entirety.

Chain of p90 RSK (P51812 whole entry): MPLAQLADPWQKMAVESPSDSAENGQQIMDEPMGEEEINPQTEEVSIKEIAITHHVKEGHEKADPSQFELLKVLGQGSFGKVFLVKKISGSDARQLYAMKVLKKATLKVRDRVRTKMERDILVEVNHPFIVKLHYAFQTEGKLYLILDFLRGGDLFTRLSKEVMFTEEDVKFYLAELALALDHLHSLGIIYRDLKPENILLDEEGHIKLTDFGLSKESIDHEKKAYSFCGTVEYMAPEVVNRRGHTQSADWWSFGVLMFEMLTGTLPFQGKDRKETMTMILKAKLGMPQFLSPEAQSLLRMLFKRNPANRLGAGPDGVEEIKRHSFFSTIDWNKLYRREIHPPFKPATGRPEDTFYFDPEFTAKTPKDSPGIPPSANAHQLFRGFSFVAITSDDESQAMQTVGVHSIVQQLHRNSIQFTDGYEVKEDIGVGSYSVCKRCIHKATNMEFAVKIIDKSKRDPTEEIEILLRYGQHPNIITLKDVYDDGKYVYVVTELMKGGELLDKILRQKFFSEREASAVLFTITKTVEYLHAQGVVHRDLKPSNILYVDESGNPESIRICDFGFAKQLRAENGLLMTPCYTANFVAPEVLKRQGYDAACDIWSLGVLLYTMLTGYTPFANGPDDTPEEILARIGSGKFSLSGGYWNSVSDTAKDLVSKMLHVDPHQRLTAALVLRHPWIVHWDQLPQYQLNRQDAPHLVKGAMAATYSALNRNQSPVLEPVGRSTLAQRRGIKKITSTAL

CC(=O)OC1C(C)OC(Oc2c(-c3ccc(O)cc3)oc3cc(O)cc(O)c3c2=O)C(O)C1OC(C)=O (centres unmarked) [SL0101-1]
inhibition of MEK (MEK): not to inhibit
inhibition of Raf (Raf): not to inhibit
inhibition of PKC (PKC): not to inhibit

CC(=O)OC1C(C)OC(Oc2c(-c3ccc(O)cc3)oc3cc(O)cc(O)c3c2=O)C(O)C1O (centres unmarked) [SL0101-2]
IC50 (p90 RSK): 189 nM

CC(=O)OC1C(C)OC(Oc2c(-c3ccc(O)cc3)oc3cc(O)cc(O)c3c2=O)C(OC(C)=O)C1O (centres unmarked) [SL0101-3]
IC50 (p90 RSK): 580 nM

From patent US7605241B2, “Synthesis of inhibitors of p90Rsk” (University of Virginia Patent Foundation, priority 2005, dated 2009)
